Results published in US8623839B2, “Compositions and methods for stabilized polysaccharide formulations” (DePuy Mitek, LLC, priority 2011, dated 2014).

Key:
[1] = test system: rabbit anterior cruciate ligament transection (ACLT) model of OA; test: Rabbit ACLT model of osteoarthritis, modified Mankin scale; assay type: in vivo; details: 5% solution in 3 mM glycine-HCl buffer pH approx. 3, intra-articular weekly for seven weeks, euthanasia at 8 weeks; vs untreated animals (FIG. 9)
Protocol: The trehalose formulation (a 5% trehalose solution in 3 mM glycine-HCl buffer having a pH of approximately 3) described above was also tested in the rabbit anterior cruciate ligament transection (ACLT) model of OA. The ACLT surgery destabilized the rabbit knee to a greater extent than meniscal transection, resulting in not only substantial cartilage deterioration but also osteophyte formation. Studies investigating the development and regulation of osteophyte formation in the rabbit model of OA have detected plate-like formations as early as 4 weeks post-ACLT, and osteophyte growth in all compartments of the knee by 12 weeks post-ACLT.
Rabbits were anesthetized. The patellar fat pad was retracted, and the ACL was isolated. The anterior cruciate ligament was severed with a surgical blade. The fibrous capsule and subcutaneous tissue were closed prior to the skin being sutured. Beginning one week after surgery, intra-articular injections were given weekly for seven weeks, followed by euthanasia at 8 weeks. Cartilage degradation was determined histologically using a modified Mankin scale. Higher scores indicated more extensive cartilage degradation, with a maximum score of 18.
[…] decreased cartilage degeneration as a result of the intra-articular trehalose injections.

[2] = test system: rat medial meniscal tear (MMT) model of osteoarthritis; test: Rat MMT model of osteoarthritis, histology; assay type: in vivo
Excerpt: In the rat medial mensical tear (MMT) model of osteoarthritis, transection of the medial meniscus results in joint deterioration and reduced weight bearing that mimics human osteoarthritis. A unilateral medial meniscal tear in 300-400 gram rats results in rapidly progressive cartilage degenerative changes characterized by chondrocyte and proteoglycan loss, fibrillation, osteophyte formation and chondrocyte cloning. Such changes are typically observed to be substantial by day 21 following the meniscal surgery. The extent of joint deterioration, as determined primarily by the extent of cartilage lesions formed, can be measured using a semi-quantitative histological scoring system.
To test the utility of trehalose as a vehicle for intra-articularly injected compounds, a solution of trehalose was formulated as a 5% solution in 3 mM glycine-HCl buffer, having a pH of approximately 3. The solution was tested in the rat MMT model. Transection of the medial collateral ligament just below attachment to the meniscus was performed on 15 male Lewis rats. The meniscus was cut at its narrowest point (away from the ossicles) taking care not to damage the tibial surface.
Beginning three days after MMT surgery, intra-articular injections of the trehalose solution were given weekly for five weeks, followed by euthanasia at week six.
Such measurements are taken using an ocular micrometer from stained histological cross sections of the medial compartment of the joint.
These measurements are taken using an ocular micrometer from stained histological cross sections of the medial compartment of the joint.
Cartilage preservation also correlated to the extent of collagen degeneration. […] The extent of collagen degeneration is defined as follows: […]
Severe damage (total or near total loss of collagen to tidemark, >90% thickness)
Marked damage (extends through 61-90% of the cartilage thickness)
Moderate damage (extends thru 31-60% of the cartilage thickness)
Mild damage (extends through 11-30% of the cartilage thickness)
Minimal damage (very superficial, affecting upper 10% only)
Cartilage degeneration scores were determined histologically by estimating the area of non-viable (significant chondrocyte and proteoglycan loss but collagen retention) and completely absent cartilage matrix, then estimating the percentage of that area compared to the area of the extrapolated original cartilage cross sectional area. A score of 1-5 is assigned, with a score of 1 indicating cartilage degeneration of 10% or less, and a score of 5 indicating complete cartilage degeneration. In FIG. 8, Zone 1 refers to the one third of the medial tibial plateau closest to the transected meniscus. […]

## OC[C@H]1O[C@H](O[C@H]2O[C@H](CO)[C@@H](O)[C@H](O)[C@H]2O)[C@H](O)[C@@H](O)[C@@H]1O [trehalose, α-D-glucopyranosyl α-D-glucopyranoside]
[1]
  modified Mankin score: significant improvement
[2]; 5% solution in 3 mM glycine-HCl buffer pH approx. 3, intra-articular weekly for five weeks, euthanasia at week six, vs no treatment (FIG. 5)
  width of significant cartilage lesions (chondrocyte and proteoglycan loss through 50% or more of cartilage thickness): significant reduction
[2]; 5% solution, intra-articular weekly for five weeks, vs no treatment (FIG. 6)
  lesion Depth Ratio: significant improvement
[2]; 5% solution, intra-articular weekly for five weeks, vs no treatment (FIG. 7)
  width of cartilage lesions with marked or severe collagen depletion: significantly reduced
[2]; all three zones, 5% solution, intra-articular weekly for five weeks (FIG. 8)
  cartilage degeneration score of medial tibial plateau: statistically improved
